Measurements reported in patent publication US7582675B2, “Flavonoid compound and process for producing the same” (Pokka Corporation, priority 2001, dated 2009).
“Also recorded” adds a separate entry of the source.

How the values were obtained:
solubility = type: physicochemical
[1] = radical scavenging ability measurement (DPPH), antioxidative activity in a hydrophilic solvent; type: biochemical; settings: samples 0.1, 1 and 10 μM, 20 minutes at room temperature, FIG. 1
Procedure: The antioxidative activity in a hydrophilic solvent was measured for hesperidin (HE) and the isolated 8-hydroxyhesperetin (8OH-HE). It should be noted that antioxidative activity was measured in accordance with the radical scavenging ability measurement method described in Yamaguchi, et al., Biosci. Biotechnol. Biochem., 62, 1201-1204, 1998. More specifically, an 8OH-HE sample solution and HE sample solution were first prepared having concentrations of 0.1 μM, 1 μM and 10 μM by dissolving 8OH-HE or HE in ethanol. 200 μL of each sample solution was then mixed into 800 μL of 0.1 M Tris-HCl buffer (pH 7.4). 1 ml of 500 μM DPPH (1,1-diphenyl-2-picrylhydrazyl) in ethanol was added to each mixture to prepare reaction solutions. After adequately mixing the reaction solutions, they were allowed to react for 20 minutes in a dark location at room temperature. Next, 20 μL of each reaction solution was injected into an analytical HPLC system (LC-10A) using a microsyringe to analyze the DPPH concentration. The DPPH concentration was calculated from peak area of DPPH. […] Using 200 μL of a solution of ethanol only instead of the sample solutions for the control, the peak area of DPPH was similarly measured for the control by HPLC analysis. The radical scavenging activity (%) of 8OH-HE and HE were then determined according to the calculation formula indicated in Formula 1. […]

[2] = antioxidative action (general statement, no test named); settings: general statement in the description
[3] = lipid peroxidation of methyl linoleate by HPLC, antioxidative activity in a hydrophobic solvent; type: biochemical; settings: 100 μM sample solutions, 40° C. for 18 hours, FIG. 2, listed as 8OH-HE
Procedure: The antioxidative activity in a hydrophobic solvent was measured for hesperidin (HE), isolated 8-hydroxyhesperetin (8OH-HE) and α-tocopherol (Toc), a compound that is known to have a high level of antioxidative activity. Incidentally, antioxidative activity was measured by HPLC analysis using methyl linoleate as described in Terao J., et al., Lipids, 21(4), 255-260, 1986.
More specifically, an 8OH-HE sample solution, HE sample solution and Toc sample solution having concentrations of 100 μM were first prepared by dissolving 8OH-HE, HE and Toc in ethanol. 89 mg (100 μL) aliquots of methyl linoleate were each weighed into three small test tubes having an inner diameter of 14 mm. 100 μL of each sample solution was added to the three test tubes and mixed well to prepare mixtures.
Next, each of the mixtures was dried by completely removing the solvent by placing each test tube in a vacuum desiccator in which pressure was reduced using a vacuum pump. […] The sum of the HPLC peak areas of 13-hydroperoxide and 9-hydroperoxide formed by the methyl linoleate was then determined.
Moreover, HPLC analysis was also performed using 100 μL of a solution of ethanol only instead of the sample solutions for the control. The sum of the HPLC peak areas of the control was also determined. The degree of lipid peroxidation (%) of each sample was then determined from Formula 2. […]

| solubility in methanol, ethanol and dimethyl sulfoxide (DMSO) (solubility; methanol, ethanol, DMSO) | solubility in water (solubility; water) | SMILES | saturation concentration (solubility limit) in the medium (solubility; culture medium, varies with the amount of organic solvent added) [% by weight] | antioxidative activity (radical scavenging activity) [1] | antioxidative action [2] | antioxidative action ([2]; listed as 8-Hydroxyhesperetin) | antioxidative activity (degree of lipid peroxidation) [3] |
| --- | --- | --- | --- | --- | --- | --- | --- |
| – | – | COc1ccc([C@@H]2CC(=O)c3c(O)cc(O[C@@H]4O[C@H](CO[C@@H]5O[C@@H](C)[C@H](O)[C@@H](O)[C@H]5O)[C@@H](O)[C@H](O)[C@H]4O)cc3O2)cc1O [hesperidin, reference compound] | ≤ 0.3 | – | – | – | – |
| easily dissolves | somewhat soluble | COc1ccc(C2CC(=O)c3c(O)cc(O)c(O)c3O2)cc1O (stereo not shown) [8-hydroxyhesperetin, 3′,5,7,8-tetrahydroxy-4′-methoxyflavonone] | – | much higher level of antioxidative activity than HE | extremely high level of antioxidative action comparable to that of α-tocopherol | remarkably high antioxidative action as compared with hesperidin and hesperetin | much higher level of antioxidative activity than HE; also recorded: antioxidative activity that was comparable to α-tocopherol |
